What was measured:
[1] = test system: live bacterial cells; assay: Anti-bacterial activity on inflamed dental pulp and dental plaque samples, Dojindo staining, Cytation 5 imaging; type: cell-based; conditions: incubated for 5 min
Description: CDB Solutions: Two CBD solutions were prepared at concentrations of 12.5% and 25% by dissolving CDB (as powder, 98% purity) in methanol to obtain the desired concentration.
Samples of inflamed dental pulp and dental plaque were collected from various subjects and incubated at 37° C. for 24 hours
The samples where then treated with CBD solutions (12.5% and 25%) and incubated for 5 min. The samples were stained with Dojindo Rapid staining kit BS02 and evaluated under a Cytation 5 cell imaging microscope.

[2] = test system: pulp extract from the teeth; assay: Pulp extract treated in-vitro and sent to pathology lab (samples 1a, 1b); type: cell-based, human; conditions: 0.1 ml of Clorhexidine Gluconate 2% (sample 1a) or CBD 25% (sample 1b)
Description: The pulp extract from the teeth was treated in-vitro and was sent to pathology lab. Pulp was extracted and separated to two samples:
Sample 1a was treated with 0.1 ml Clorhexidine Gluconate 2%.

[3] = test system: mid-femoral fractures; conditions: rats with mid-femoral fractures, after eight weeks; cited from earlier work
[4] = test system: chronic irreversible pulpitis combined with periapical lesion; assay: Root canal treatment with CBD added to dressing and sealer, bone regeneration by X-ray (Patient 1); type: in vivo, human
Description: Histology slides prepared after pulpectomy of a second mandibular molar diagnosed with chronic irreversible pulpitis combined with periapical lesion (FIG. 6).
The treatment was performed with regular methods, in 2 steps 1 week rest. In the temporary dressing of the root canal medication Hydroxide Calcium was introduced 0.1 ml of CBD (25%) as well in the permanent sealer EWT Ken pulp sealer was introduced 0.5 ml of CBD (25%), pulp canal system sealed with sealer and gutta-percha.
With standard treatment for periapical lesion, regeneration is usually noticed 6 months after treatment.

[5] = test system: bacteria's from the nerve fiber; assay: Bacteria on nerve fiber of pulp removed by pulpectomy, phase contrast microscopy without staining; type: cell-based
Description: A patent diagnosed with acute pulpitis with severe signs of pain on cold irritants, percussion pain with x-ray deep caries radiolucent areas adjacent to the coronal pulp. Hyperemia is evident in the dental canal system when opening of the coronal part of pulp chamber.
Pulpectomy (Removal of the entire pulp structure of a tooth, including the pulp tissue in the roots) was performed. The pulp was analyzed by phase contrast microscopy without staining.
Following Pulpectomy a solution of 0.1 ml CBD (25%) was applied for 1 min.
The same application was made with a Clorhexidine gluconate 2% solution used in endodontics to rinse canal system of the roots. A reduction of less than 20% in bacteria's was observed.

[6] = test system: vestibular canal pulp; assay: Extracted dental pulp of hemisected wisdom tooth treated with CBD solution (samples 3a, 3b); type: cell-based, human; conditions: sample 3b, 0.1 ml 25% solution, compared to 3a (Formalin)
Description: A patient with chronic irreversible pulpitis element 28 wisdom tooth.
The element was hemisected and dental pulp extracted from tooth.
Sample 3a: Palatinal pulp was placed in Formalin.
Sample 3b: 0.1 ml CDB (25%) solution was applied to the vestibular canal pulp.

[7] = relative to THC; cited from earlier work

| SMILES | reduction in live bacterial cells as compared to an untreated sample ([1]; 12.5% CBD solution) [%] | reduction in live bacterial cells as compared to an untreated sample ([1]; 25% CBD solution) [%] | pathology lab findings of treated pulp sample [2] | bone fractures healing [3] | bone regeneration on re-examination ([4]; 8 weeks after treatment) | bone regeneration in the apical region by X-ray ([4]; after 1 week, 0.1 ml CBD (25%) in Hydroxide Calcium dressing, 0.5 ml CBD (25%) in sealer) | reduction of bacteria's from the nerve fiber ([5]; 0.1 ml CBD (25%) applied for 1 min following pulpectomy) | inflammation and infection of pulp sample [6] | reduction in bacteria's ([5]; Clorhexidine gluconate 2% solution, same application) | less active than THC [7] [%] |
| --- | --- | --- | --- | --- | --- | --- | --- | --- | --- | --- |
| C=C(C)[C@@H]1CCC(C)=C[C@H]1c1c(O)cc(CCCCC)cc1O [CBD, cannabidiol] | > 75 | > 90 | connective tissue, bone and no bacteria | enhances bone fractures healing | total regeneration | bone regeneration was identified | total reduction | no inflammation and no infection | – | – |
| N=C(NCCCCCCNC(=N)NC(=N)Nc1ccc(Cl)cc1)NC(=N)Nc1ccc(Cl)cc1.O=C(O)[C@H](O)[C@@H](O)[C@H](O)[C@H](O)CO.O=C(O)[C@H](O)[C@@H](O)[C@H](O)[C@H](O)CO [Clorhexidine gluconate] | – | – | debris, bacteria, and enamel cement | – | – | – | – | – | less than 20% | – |
| CCCCCc1cc(O)c2c(c1)OC(C)(C)[C@@H]1CC=C(C)C[C@@H]21 [Δ8-THC] | – | – | – | – | – | – | – | – | – | ~20 |

— patent US11612581B2, “Cannabis and derivatives thereof for the treatment of pain and inflammation related with dental pulp and bone regeneration related to dental jaw bone defects” (CANNIBITE BVBA, priority 2017, dated 2023)
